Measured values published in US10870651B2, “Inhibitors of cyclin-dependent kinase 7 (CDK7)” (Dana-Farber Cancer Institute, Inc., priority 2014, dated 2020).

Key:
MELK = MELK (Homo sapiens (Human), UniProt Q14680); assay: Inhibition of kinase activity, MELK; type: biochemical
Protocol: (§1) Compounds of the invention were assayed for activity against a variety of different kinases. Exemplary results are presented as calculated IC50 values (Table A1 & A2). In Table A1 and A2 “A” represents a calculated IC50 value of less than 100 nM; “B” represents a calculated IC50 value of greater than or equal to 100 nM and less than 1 μM; and “C” represents a calculated IC50 value of 1 μM or greater. The co-factors used for each kinase in the assays were as follows: CDK7: cyclin H and MNAT1; CDK2: cyclin A; CDK9: cyclin K.

Kelly neuroblastoma = assay: Inhibition of cell proliferation (CellTiter-Glo), Kelly; type: cell-based; details: 72 hours incubation, CellTiter-Glo, 4,000 cells/well
Protocol: (§2) Exemplary compounds of the invention were tested at different concentrations. Cells were plated in 96-well plates at the following seeding densities: Jurkat T-cell acute lymphoblastic leukemia 25,000 cells/well; HCT116 colorectal carcinoma 8,000 cells/well; Kelly neuroblastoma 4,000 cells/well. The cells were treated with various concentration of compounds (ranging from 1 nM to 10 μM). DMSO solvent with no compound served as a control. Following incubation for 72 hours, cell survival following treatment with exemplary compounds described herein was assessed by CellTiter-Glo® Luminescent cell viability assay (Promega). IC50 values were determined using GRAPHPAD PRISM 6 software. Exemplary results are shown in Table A3, wherein “A” represents a calculated IC50 value of less than 500 nM; “B” represents a calculated IC50 value of greater than or equal to 500 nM and less than 5000 μM; and “C” represents a calculated IC50 value of 5000 μM or greater

CDK7 [1] = target: T1, CDK7 (Homo sapiens (Human), UniProt P50613); assay: Inhibition of kinase activity, CDK7; type: biochemical; details: co-factors cyclin H and MNAT1
T1 sequence (P50613 whole entry): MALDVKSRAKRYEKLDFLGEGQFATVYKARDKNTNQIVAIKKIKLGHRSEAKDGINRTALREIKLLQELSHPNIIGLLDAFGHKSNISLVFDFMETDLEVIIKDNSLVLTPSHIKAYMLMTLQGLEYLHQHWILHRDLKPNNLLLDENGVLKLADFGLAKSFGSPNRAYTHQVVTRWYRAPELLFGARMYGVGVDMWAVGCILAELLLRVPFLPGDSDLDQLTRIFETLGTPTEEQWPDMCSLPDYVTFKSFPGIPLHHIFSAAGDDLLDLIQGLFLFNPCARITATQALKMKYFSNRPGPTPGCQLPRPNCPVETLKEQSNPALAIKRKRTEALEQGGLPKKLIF
T1 sequence (P51946 whole entry partner): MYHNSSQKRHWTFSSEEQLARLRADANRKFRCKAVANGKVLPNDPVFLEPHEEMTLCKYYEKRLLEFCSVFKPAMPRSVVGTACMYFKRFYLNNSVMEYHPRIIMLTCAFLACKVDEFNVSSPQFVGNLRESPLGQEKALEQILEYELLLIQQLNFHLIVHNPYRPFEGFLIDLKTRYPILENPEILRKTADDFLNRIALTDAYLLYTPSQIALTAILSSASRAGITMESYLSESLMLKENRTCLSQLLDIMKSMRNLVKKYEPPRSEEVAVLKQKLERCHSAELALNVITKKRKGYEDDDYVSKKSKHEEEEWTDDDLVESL
T1 sequence (P51948 whole entry partner): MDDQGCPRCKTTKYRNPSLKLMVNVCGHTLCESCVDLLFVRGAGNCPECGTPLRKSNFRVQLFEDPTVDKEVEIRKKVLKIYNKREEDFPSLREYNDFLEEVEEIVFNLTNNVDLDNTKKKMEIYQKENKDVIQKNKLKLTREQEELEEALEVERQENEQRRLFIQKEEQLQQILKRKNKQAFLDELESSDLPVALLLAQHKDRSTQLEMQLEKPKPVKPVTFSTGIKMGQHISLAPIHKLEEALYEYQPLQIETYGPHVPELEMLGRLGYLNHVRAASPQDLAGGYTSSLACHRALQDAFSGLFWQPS
Protocol: as §1

[2] = test system: Jurkat T-cell acute lymphoblastic leukemia; assay: Inhibition of cell proliferation (CellTiter-Glo), Jurkat; type: cell-based; details: Homo sapiens, 72 hours incubation, CellTiter-Glo, 25,000 cells/well
Protocol: as §2

[3] = test system: HCT116 colorectal carcinoma; assay: Inhibition of cell proliferation (CellTiter-Glo), HCT116; type: cell-based; details: Homo sapiens, HCT-116; 72 hours incubation, CellTiter-Glo, 8,000 cells/well
Protocol: as §2

CDK9 = CDK9 (Homo sapiens (Human), UniProt P50750); assay: Inhibition of kinase activity, CDK9; type: biochemical; details: co-factor cyclin K
Chain of CDK9 (P50750 whole entry): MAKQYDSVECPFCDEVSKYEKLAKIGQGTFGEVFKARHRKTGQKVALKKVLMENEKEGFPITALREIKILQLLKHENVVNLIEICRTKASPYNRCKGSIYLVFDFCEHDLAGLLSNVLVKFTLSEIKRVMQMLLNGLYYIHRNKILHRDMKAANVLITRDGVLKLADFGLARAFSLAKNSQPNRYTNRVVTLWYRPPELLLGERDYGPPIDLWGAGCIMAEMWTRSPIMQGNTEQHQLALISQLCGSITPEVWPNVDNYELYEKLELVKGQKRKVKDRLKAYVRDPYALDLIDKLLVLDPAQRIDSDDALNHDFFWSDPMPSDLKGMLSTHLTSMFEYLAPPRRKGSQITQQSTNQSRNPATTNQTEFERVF
Chain of CDK9 (O75909 whole entry partner): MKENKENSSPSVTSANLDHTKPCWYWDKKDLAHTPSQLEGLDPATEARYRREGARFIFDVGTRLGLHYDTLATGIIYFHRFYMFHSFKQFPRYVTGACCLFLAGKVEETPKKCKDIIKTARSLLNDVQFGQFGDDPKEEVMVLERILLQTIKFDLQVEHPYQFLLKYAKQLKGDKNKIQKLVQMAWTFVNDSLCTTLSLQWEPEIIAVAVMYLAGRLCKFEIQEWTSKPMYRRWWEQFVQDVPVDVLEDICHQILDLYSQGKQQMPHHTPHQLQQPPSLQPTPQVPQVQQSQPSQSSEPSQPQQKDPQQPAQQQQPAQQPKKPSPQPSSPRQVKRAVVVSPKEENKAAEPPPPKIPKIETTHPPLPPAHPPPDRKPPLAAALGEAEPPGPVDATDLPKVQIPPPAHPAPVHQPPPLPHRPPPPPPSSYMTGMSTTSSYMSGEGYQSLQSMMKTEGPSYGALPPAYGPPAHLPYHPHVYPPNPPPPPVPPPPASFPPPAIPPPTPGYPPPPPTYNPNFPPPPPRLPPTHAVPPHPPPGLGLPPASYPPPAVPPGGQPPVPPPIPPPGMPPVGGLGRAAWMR
Protocol: as §1

CDK2 = CDK2 (Homo sapiens (Human), UniProt P24941); assay: Inhibition of kinase activity, CDK2; type: biochemical; details: co-factor cyclin A
Protocol: as §1

SRC = SRC (Homo sapiens (Human), UniProt P12931); assay: Inhibition of kinase activity, SRC; type: biochemical
Protocol: as §1

HIPK4 = HIPK4 (Homo sapiens (Human), UniProt Q8NE63); assay: Inhibition of kinase activity, HIPK4; type: biochemical
Protocol: as §1

RET = RET (Homo sapiens (Human), UniProt P07949); assay: Inhibition of kinase activity, RET; type: biochemical
Chain of RET (P07949 29-1114): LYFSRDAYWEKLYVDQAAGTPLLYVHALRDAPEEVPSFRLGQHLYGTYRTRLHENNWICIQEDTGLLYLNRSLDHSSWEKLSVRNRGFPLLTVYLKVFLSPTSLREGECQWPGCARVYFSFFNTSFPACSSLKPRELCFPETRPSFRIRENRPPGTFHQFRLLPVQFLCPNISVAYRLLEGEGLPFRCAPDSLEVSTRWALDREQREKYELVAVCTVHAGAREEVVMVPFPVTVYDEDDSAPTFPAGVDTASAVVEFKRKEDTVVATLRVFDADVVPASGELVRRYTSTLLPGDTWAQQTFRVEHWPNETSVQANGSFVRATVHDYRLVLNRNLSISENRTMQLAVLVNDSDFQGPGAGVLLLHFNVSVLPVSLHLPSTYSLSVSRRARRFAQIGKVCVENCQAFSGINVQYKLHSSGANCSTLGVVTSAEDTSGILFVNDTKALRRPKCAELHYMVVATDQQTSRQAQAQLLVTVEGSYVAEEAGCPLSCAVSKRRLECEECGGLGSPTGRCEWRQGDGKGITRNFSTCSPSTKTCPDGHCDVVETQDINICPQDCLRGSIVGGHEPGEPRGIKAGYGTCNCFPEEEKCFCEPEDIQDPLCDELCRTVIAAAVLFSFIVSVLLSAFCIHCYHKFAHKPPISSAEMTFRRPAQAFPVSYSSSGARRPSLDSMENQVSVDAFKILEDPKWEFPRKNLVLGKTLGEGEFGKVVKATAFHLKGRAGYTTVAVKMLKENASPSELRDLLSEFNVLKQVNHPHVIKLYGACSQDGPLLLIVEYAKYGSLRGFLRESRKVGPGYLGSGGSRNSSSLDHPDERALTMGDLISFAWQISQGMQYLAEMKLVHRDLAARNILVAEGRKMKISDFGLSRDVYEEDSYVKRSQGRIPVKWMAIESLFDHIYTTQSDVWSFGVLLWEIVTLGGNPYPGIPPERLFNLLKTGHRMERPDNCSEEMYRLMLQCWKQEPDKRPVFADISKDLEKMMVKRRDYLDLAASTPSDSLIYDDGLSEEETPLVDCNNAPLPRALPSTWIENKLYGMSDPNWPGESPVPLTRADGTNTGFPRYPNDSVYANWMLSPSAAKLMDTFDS
Protocol: as §1

CHEK2 = CHEK2 (Homo sapiens (Human), UniProt O96017); assay: Inhibition of kinase activity, CHEK2; type: biochemical
Chain of CHEK2 (O96017 whole entry): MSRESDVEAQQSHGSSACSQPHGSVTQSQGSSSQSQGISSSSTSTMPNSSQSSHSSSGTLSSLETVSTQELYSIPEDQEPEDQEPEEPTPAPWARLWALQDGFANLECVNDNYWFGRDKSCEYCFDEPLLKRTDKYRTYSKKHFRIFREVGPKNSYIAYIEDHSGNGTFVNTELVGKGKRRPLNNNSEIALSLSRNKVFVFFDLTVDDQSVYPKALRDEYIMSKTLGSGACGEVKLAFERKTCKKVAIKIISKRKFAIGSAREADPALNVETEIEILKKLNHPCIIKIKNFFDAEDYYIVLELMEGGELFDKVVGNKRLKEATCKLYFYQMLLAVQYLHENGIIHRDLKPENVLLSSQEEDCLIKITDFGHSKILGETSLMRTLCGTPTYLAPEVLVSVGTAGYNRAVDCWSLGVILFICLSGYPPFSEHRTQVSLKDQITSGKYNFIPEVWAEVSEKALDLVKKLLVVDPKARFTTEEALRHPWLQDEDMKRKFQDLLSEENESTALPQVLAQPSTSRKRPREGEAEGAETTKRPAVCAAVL
Protocol: as §1

CDK7 [4] = target: T1, CDK7; assay: Labeling of CDK7 with an inhibitor (CAK complex, nano LC-MS); type: binding; details: 10-fold molar excess of compound, 6 hrs at 37° C., trypsin digest
Protocol: CAK complex (Millipore cat#14-476) in 40 mM Hepes pH 7.4, 150 mM NaCl, 5% glycerol and 1 mM DTT with protease and phosphatase inhibitors was incubated with a 10-fold molar excess of Compound 101 for 6 hrs at 37° C. Proteins were resolved by SDS-PAGE, bands corresponding to CDK7 were digested in-gel with trypsin, and peptides analyzed by nano LC-MS using an Orbitrap XL mass spectrometer (ThermoFisher Scientific, San Jose, Calif.). Efficiency of labeling was estimated from the reduction in signal of the Cys312 containing peptide […] (SEQ ID NO: 3) compared to DMSO control. Signals from CDK7 peptides VPFLPGDSDLDQLTR (SEQ ID NO: 1) and LDFLGEGQFATVYK were used for normalization. See FIG. 1 for the total ion chromatograms (TIC) and extracted ion chromatograms (EIC) of the CDK7 peptides treated with DMSO (A-D) or Compound 101 (E-H). The labeled peptide was detected by mass spectrometry, as shown in the spectrum of FIG. 2.

PRKCQ = PRKCQ (Homo sapiens (Human), UniProt Q04759); assay: Inhibition of kinase activity, PRKCQ; type: biochemical
Protocol: as §1

FGR = FGR (Homo sapiens (Human), UniProt P09769); assay: Inhibition of kinase activity, FGR; type: biochemical
Chain of FGR (P09769 whole entry): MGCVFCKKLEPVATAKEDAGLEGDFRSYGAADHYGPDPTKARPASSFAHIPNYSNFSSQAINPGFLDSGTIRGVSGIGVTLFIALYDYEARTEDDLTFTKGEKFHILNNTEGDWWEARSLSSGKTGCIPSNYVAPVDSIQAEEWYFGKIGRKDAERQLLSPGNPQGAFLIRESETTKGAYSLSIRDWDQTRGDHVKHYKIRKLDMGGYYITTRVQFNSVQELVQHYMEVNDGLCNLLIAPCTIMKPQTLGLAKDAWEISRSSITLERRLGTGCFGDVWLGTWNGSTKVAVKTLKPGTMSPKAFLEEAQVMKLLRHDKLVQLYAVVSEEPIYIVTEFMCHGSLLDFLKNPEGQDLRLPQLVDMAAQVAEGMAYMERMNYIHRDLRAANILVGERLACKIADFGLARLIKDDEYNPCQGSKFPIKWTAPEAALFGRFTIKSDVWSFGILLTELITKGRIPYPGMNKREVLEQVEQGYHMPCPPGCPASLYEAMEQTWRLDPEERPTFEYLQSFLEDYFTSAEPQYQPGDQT
Protocol: as §1

Chain of MELK (Q14680 whole entry): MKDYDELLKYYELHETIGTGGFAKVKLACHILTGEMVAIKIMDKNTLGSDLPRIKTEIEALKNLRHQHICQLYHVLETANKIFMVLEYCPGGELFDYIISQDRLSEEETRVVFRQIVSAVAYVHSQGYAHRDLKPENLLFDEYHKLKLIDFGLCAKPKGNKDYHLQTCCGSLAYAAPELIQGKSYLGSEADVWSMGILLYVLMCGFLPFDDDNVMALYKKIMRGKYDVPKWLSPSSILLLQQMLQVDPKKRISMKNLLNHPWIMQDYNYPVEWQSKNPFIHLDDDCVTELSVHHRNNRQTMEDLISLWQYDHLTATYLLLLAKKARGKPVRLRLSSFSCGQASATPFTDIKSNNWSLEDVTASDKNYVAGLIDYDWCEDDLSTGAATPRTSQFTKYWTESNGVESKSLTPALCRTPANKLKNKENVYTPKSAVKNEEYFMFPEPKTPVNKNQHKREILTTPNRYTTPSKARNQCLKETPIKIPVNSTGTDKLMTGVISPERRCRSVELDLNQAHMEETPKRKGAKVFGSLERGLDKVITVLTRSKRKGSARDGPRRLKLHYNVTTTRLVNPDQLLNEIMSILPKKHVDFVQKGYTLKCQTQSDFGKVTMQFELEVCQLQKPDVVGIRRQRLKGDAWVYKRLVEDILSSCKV

**Q.** With `C=CC(=O)Nc1ccc(C(=O)Nc2cccc(Nc3n[nH]c4c3CN(C(=O)NCCN(C)C)C4(C)C)c2)cc1` [Compound 106, 3-((3-(4-acrylamidobenzamido)phenyl)amimo)-N-(2-(dimethylamino)ethyl)-6,6-dimethyl-4,6-dihydropyrrolo[3,4-c]pyrazole-5(1H)-carboxamide] as the molecule, how does the IC50 (MELK) read?
**A.** 0.1 to 1 µM

**Q.** What about the IC50 (Kelly neuroblastoma) of the same molecule?
**A.** ≥ 5000 µM

**Q.** And the IC50 (CDK7 [1])?
**A.** 0.1 to 1 µM

**Q.** How did the IC50 [2] turn out when `CCC(=O)Nc1ccc(C(=O)Nc2cccc(Nc3n[nH]c4c3CN(C(=O)N[C@H](CN(C)C)c3ccccc3)C4(C)C)c2)cc1` [Compound 104, (S)-N-(2-(dimethylamino)-1-phenylethyl)-6,6-dimethyl-3-((3-(4-propionamidobenzamido)phenyl)amino)-4,6-dihydropyrrolo[3,4-c]pyrazole-5(1H)-carboxamide] was run?
**A.** 0.5 to 5000 µM

**Q.** What about the IC50 [3] of the same molecule?
**A.** 0.5 to 5000 µM

**Q.** What about the IC50 (CDK7 [1]) of the same molecule?
**A.** < 0.1 µM

**Q.** `C=CC(=O)Nc1ccc(C(=O)Nc2cccc(C(=O)Nc3n[nH]c4c3CN(C(=O)N[C@H](CN(C)C)c3ccccc3)C4(C)C)c2)cc1` [Compound 112, (S)-3-(3-(4-acrylamidobenzamido)benzamido)-N-(2-(dimethylamino)-1-phenylethyl)-6,6-dimethyl-4,6-dihydropyrrolo[3,4-c]pyrazole-5(1H)-carboxamide] was tested. Which IC50 (Kelly neuroblastoma) did it give?
**A.** 0.5 to 5000 µM

**Q.** What about the IC50 (CDK7 [1]) of the same molecule?
**A.** < 0.1 µM

**Q.** For `C=CC(=O)Nc1ccc(C(=O)Nc2cccc(Nc3n[nH]c4c3CN(C(=O)N3CCN(C)CC3)C4(C)C)c2)cc1` [Compound 107, 4-acrylamido-N-(3-((6,6-dimethyl-5-(4-methylpiperazine-1-carbonyl)-1,4,5,6-tetrahydropyrrolo[3,4-c]pyrazol-3-yl)amino)phenyl)benzamide], which IC50 [2] is on record?
**A.** 0.5 to 5000 µM

**Q.** And the IC50 (CDK7 [1])?
**A.** < 0.1 µM

**Q.** `C=CC(=O)Nc1ccc(C(=O)Nc2cccc(Nc3n[nH]c4c3CN(C(=O)N[C@H](CN(C)C)c3ccccc3)C4(C)C)c2)cc1` [Compound 101, (S)-3-((3-(4-acrylamidobenzamido)phenyl)amino)-N-(2-(dimethylamino)-1-phenylethyl)-6,6-dimethyl-4,6-dihydropyrrolo[3,4-c]pyrazole-5(1H)-carboxamide] was tested. Which IC50 (CDK9) did it give?
**A.** ≥ 1 µM

**Q.** And the IC50 (CDK2)?
**A.** ≥ 1 µM

**Q.** What about the IC50 (SRC) of the same molecule?
**A.** < 0.1 µM

**Q.** What about the IC50 [2] of the same molecule?
**A.** < 0.5 µM

**Q.** What about the IC50 (HIPK4) of the same molecule?
**A.** 0.1 to 1 µM

**Q.** What about the IC50 (RET) of the same molecule?
**A.** < 0.1 µM

**Q.** What about the IC50 [3] of the same molecule?
**A.** < 0.5 µM

**Q.** And the IC50 (MELK)?
**A.** 0.1 to 1 µM

**Q.** What about the IC50 (CHEK2) of the same molecule?
**A.** < 0.1 µM

**Q.** What about the “Covalent labeling of CDK7 peptide detected by mass spectrometry” value (CDK7 [4]) of the same molecule?
**A.** labeled with Compound 101 at Cys312

**Q.** And the IC50 (Kelly neuroblastoma)?
**A.** 0.5 to 5000 µM

**Q.** And the IC50 (PRKCQ)?
**A.** < 0.1 µM

**Q.** And the IC50 (CDK7 [1])?
**A.** < 0.1 µM

**Q.** And the IC50 (FGR)?
**A.** < 0.1 µM

**Q.** How did the IC50 (CDK7 [1]) turn out when `CN(C)C/C=C/C(=O)Nc1ccc(C(=O)Nc2cccc(Nc3n[nH]c4c3CN(C(=O)N[C@H](CO)c3ccccc3)C4(C)C)c2)cc1` [Compound 109, (S,E)-3-((3-(4-(4-(dimethylamino)but-2-enamido)benzamido)phenyl)amino)-N-(2-hydroxy-1-phenylethyl)-6,6-dimethyl-4,6-dihydropyrrolo[3,4-c]pyrazole-5(1H)-carboxamide] was run?
**A.** < 0.1 µM

**Q.** `C=CC(=O)Nc1ccc(C(=O)Nc2n[nH]c3c2CN(C(=O)N[C@H](CN(C)C)c2ccccc2)C3(C)C)cc1` [Compound 214, (S)-3-(4-acrylamidobenzamido)-N-(2-(dimethylamino)-1-phenylethyl)-6,6-dimethyl-4,6-dihydropyrrolo[3,4-c]pyrazole-5(1H)-carboxamide] was tested. Which IC50 (CDK7 [1]) did it give?
**A.** < 0.1 µM

**Q.** `C=CC(=O)N1CCC(Nc2n[nH]c3c2CN(C(=O)N[C@H](CN(C)C)c2ccccc2)C3(C)C)CC1` [Compound 231, (5)-3-((1-acryloylpiperidin-4-yl)amino)-N-(2-(dimethylamino)-1-phenylethyl)-6,6-dimethyl-4,6-dihydropyrrolo[3,4-c]pyrazole-5(1H)-carboxamide] was tested. Which IC50 (CDK7 [1]) did it give?
**A.** < 0.1 µM

**Q.** For `C=CC(=O)Nc1cccc(C(=O)Nc2ccc(Nc3n[nH]c4c3CN(C(=O)N[C@H](CN(C)C)c3ccccc3)C4(C)C)cc2)c1` [Compound 103, (S)-3-((4-(3-acrylamidobenzamido)phenyl)amino)-N-(2-(dimethylamino)-1-phenylethyl)-6,6-dimethyl-4,6-dihydropyrrolo[3,4-c]pyrazole-5(1H)-carboxamide], which IC50 (CDK7 [1]) is on record?
**A.** < 0.1 µM

**Q.** How did the IC50 (CDK7 [1]) turn out when `C=CC(=O)N1CCCC(Nc2n[nH]c3c2CN(C(=O)N[C@H](CN(C)C)c2ccccc2)C3(C)C)C1` (stereo partly drawn) [Compound 232, 3-((1-acryloylpiperidin-3-yl)amino)-N-((S)-2-(dimethylamino)-1-phenylethyl)-6,6-dimethyl-4,6-dihydropyrrolo[3,4-c]pyrazole-5(1H)-carboxamide] was run?
**A.** < 0.1 µM

**Q.** How did the IC50 (CDK7 [1]) turn out when `C=CC(=O)Nc1ccc(C(=O)NC2CCC(Nc3n[nH]c4c3CN(C(=O)N[C@H](CN(C)C)c3ccccc3)C4(C)C)CC2)cc1` (stereo partly drawn) [Compound 119, (S)-3-((4-(4-acrylamidobenzamido)cyclohexyl)amino)-N-(2-(dimethylamino)-1-phenylethyl)-6,6-dimethyl-4,6-dihydropyrrolo[3,4-c]pyrazole-5(1H)-carboxamide] was run?
**A.** < 0.1 µM

**Q.** Which IC50 (CDK7 [1]) does the source give for `C=CC(=O)Nc1ccc(C(=O)Nc2cccc(Nc3n[nH]c4c3CN(C(=O)NC(C)CN(C)C)C4(C)C)c2)cc1` (stereo not shown) [Compound 108, 3-((3-(4-acrylamidobenzamido)phenyl)amino)-N-(1-(dimethylamino)propan-2-yl)-6,6-dimethyl-4,6-dihydropyrrolo[3,4-c]pyrazole-5(1H)-carboxamide] here?
**A.** < 0.1 µM

**Q.** How did the IC50 (Kelly neuroblastoma) turn out when `C=CC(=O)Nc1ccc(C(=O)Nc2ccc(Nc3n[nH]c4c3CN(C(=O)N[C@H](CN(C)C)c3ccccc3)C4(C)C)cc2)cc1` [Compound 102, (S)-3-((4-(4-acrylamidobenzamido)phenyl)amino)-N-(2-(dimethylamino)-1-phenylethyl)-6,6-dimethyl-4,6-dihydropyrrolo[3,4-c]pyrazole-5(1H)-carboxamide] was run?
**A.** ≥ 5000 µM

**Q.** And the IC50 (CDK7 [1])?
**A.** < 0.1 µM

**Q.** How did the IC50 (CDK7 [1]) turn out when `C=CC(=O)Nc1ccc(C(=O)Nc2c3c(nn2C)C(C)(C)N(C(=O)N[C@H](CN(C)C)c2ccccc2)C3)cc1` [Compound 242, (S)-3-(4-acrylamidobenzamido)-N-(2-(dimethylamino)-1-phenylethyl)-2,6,6-trimethyl-2,6-dihydropyrrolo[3,4-c]pyrazole-5(4H)-carboxamide] was run?
**A.** ≥ 1 µM
